target: T1, fibrinogen receptor of blood platelets, glycoprotein IIb/IIIa (Homo sapiens, UniProt P05106+P08514); assay: Inhibition of fibrinogen binding to immobilized glycoprotein IIb/IIIa (ELISA); conditions: purified glycoprotein IIb/IIIa from human blood platelets bound to microtitre plates, read-out: IC50 (concentration of test substance required to inhibit the binding of fibrinogen to the immobilized receptor by 50%)
T1 construct: Glycoprotein IIb/IIIa is obtained from Triton X-100 extracts of human blood platelets; from tissue; host or cells: human blood platelets (Triton X-100 extract)
Description: Glycoprotein IIb/IIIa is obtained from Triton X-100 extracts of human blood platelets and purified by lectin affinity chromatography (Analytical Biochemistry 151, 1985, 169-177) and chromatography on an Arg-Gly-Asp-Ser affinity column (Science 231, 1986, 1559-62). The receptor protein obtained in this way is bound to microtitre plates. The specific binding of fibrinogen to the immobilized receptor is determined using an ELISA system (enzyme-linked immunosorbent assay). The IC50 values hereinafter correspond to that concentration of the test substance required to inhibit the binding of fibrinogen to the immobilized receptor by 50%: […]

T1 sequence (P08514 32-887 limits assumed): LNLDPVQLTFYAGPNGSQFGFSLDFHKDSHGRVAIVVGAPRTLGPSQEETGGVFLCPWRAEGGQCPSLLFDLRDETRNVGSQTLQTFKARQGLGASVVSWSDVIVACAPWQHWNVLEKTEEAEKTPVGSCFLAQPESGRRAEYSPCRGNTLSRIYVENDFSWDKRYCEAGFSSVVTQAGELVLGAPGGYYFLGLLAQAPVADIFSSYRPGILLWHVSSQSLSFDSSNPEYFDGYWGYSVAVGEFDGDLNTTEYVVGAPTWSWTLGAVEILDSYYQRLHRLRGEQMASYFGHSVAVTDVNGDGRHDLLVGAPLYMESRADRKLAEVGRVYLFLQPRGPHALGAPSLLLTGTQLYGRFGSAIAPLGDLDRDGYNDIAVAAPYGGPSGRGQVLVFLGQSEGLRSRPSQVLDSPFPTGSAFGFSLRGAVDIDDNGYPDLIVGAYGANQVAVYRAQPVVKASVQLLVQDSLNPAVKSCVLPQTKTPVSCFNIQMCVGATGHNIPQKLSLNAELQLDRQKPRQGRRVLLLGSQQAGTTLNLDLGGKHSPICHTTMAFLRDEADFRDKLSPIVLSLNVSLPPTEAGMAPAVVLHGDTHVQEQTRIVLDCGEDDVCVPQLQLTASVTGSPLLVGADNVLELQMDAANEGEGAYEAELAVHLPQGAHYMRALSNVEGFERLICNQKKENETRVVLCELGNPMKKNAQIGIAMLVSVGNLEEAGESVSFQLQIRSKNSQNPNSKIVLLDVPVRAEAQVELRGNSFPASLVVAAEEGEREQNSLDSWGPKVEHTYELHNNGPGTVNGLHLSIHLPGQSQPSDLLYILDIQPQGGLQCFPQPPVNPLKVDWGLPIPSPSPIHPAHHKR
T1 sequence (P08514 891-1039 limits assumed): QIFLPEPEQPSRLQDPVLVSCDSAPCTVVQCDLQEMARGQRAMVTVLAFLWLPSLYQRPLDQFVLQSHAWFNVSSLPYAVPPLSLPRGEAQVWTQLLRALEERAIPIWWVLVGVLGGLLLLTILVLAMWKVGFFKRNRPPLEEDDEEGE
T1 sequence (P05106 27-788): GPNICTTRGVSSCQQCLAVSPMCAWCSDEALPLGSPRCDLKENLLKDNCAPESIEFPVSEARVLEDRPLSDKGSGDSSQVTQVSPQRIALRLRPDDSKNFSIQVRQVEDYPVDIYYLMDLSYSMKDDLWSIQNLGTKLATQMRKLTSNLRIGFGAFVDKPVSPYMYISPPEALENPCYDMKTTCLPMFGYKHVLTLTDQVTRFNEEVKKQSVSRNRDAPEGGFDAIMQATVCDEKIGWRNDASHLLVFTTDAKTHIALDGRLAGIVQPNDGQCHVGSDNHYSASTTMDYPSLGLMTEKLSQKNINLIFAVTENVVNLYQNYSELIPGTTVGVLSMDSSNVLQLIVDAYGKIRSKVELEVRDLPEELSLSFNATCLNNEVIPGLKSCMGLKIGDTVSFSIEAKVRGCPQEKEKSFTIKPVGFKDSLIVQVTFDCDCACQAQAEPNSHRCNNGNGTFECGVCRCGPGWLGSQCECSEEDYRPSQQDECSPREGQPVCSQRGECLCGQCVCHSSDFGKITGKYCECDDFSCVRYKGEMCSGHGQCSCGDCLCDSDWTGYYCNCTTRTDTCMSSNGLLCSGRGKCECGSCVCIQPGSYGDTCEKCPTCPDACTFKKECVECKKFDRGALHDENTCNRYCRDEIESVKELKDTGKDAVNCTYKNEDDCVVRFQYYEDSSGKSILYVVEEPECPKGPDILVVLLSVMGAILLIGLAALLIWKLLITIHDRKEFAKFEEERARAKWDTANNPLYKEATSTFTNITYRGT

| Compound | IC50 |
| --- | --- |
| C[C@H](Cc1ccc([C@H](C)CC(=O)O)s1)NC(=O)c1ccc(C(=N)N)cc1 (racemic) [Example 40, (RS)-5-[(RS)-2-(p-amidinobenzamido)propyl]-β-methyl-2-thiophene-propionic acid] | 40 nM |
| COC(=O)COc1ccc(CCNC(=O)c2ccc(C(=N)N)cc2)cc1 [Example 1, Methyl p-[2-(p-amidinobenzamido)ethyl]phenoxyacetate] | 370 nM |
| N=C(N)c1ccc(C(=O)NCCc2ccc(OCC(=O)O)cc2)cc1 [Example 2, p-[2-(amidinobenzamido)ethyl]phenoxyaceticacid] | 40 nM |
| N=C(N)c1ccc(S(=O)(=O)NCCOc2ccc(CC(=O)O)cc2)cc1 [Example 10, p-[2-(p-amidinophenylsulphonamido)ethoxy]phenylacetic acid] | 640 nM |
| N=C(N)c1ccc(S(=O)(=O)NCCc2ccc(OCC(=O)O)cc2)cc1 [Example 12, p-[2-(p-amidinobenzenesulphonamido)ethyl]phenoxyacetic acid] | 100 nM |
| N=C(N)c1ccc(S(=O)(=O)N(CCc2ccc(OCC(=O)O)cc2)Cc2ccccc2)cc1 [Example 18, p-[2-(p-amidino-N-benzylphenylsulphonamido)ethyl]phenoxyacetic acid] | 720 nM |
| N=C(N)c1ccc(S(=O)(=O)NCC(O)c2ccc(OCC(=O)O)cc2)cc1 (centres unmarked) [Example 20, p-[2-(p-amidinobenzenesulphonamido)-1-hydroxyethyl]phenoxyacetic acid] | 470 nM |
| CC(CC(=O)O)c1ccc(CCNS(=O)(=O)c2ccc(C(=N)N)cc2)cc1 (stereo not drawn) [Example 36, p-[2-(p-amidinophenylsulphonamido)ethyl]-β-methyl-hydrocinnamic acid] | 100 nM |
| N=C(N)c1ccc(S(=O)(=O)NCCCc2ccc(CC(=O)O)cc2)cc1 [Example 46, p-[3-(p-amidinophenylsulphonamido)propyl]phenylacetic acid] | 300 nM |
| N=C(N)c1ccc(C(=O)NCCc2ccc(OCC(=O)O)cc2)cn1 [Example 48] | 30 nM |
| N=C(N)c1ccc(CC(=O)NCc2ccc(OCC(=O)O)cc2)cc1 [Example 78, p-[2-(p-amidinophenyl)acetamido]-p-tolyloxyacetic acid] | 970 nM |
| N=C(N)c1ccc(C(=O)N[C@@H](CO)Cc2ccc(OCC(=O)O)cc2)cc1 [Example 81, p-[(R)-2-(p-amidinobenzamido)-3-hydroxypropyl)phenoxyacetic acid] | 80 nM |
| COC(=O)COc1ccc(C(=O)CN(C)C(=O)c2ccc(C(=N)N)cc2)cc1OCC(=O)OC [Example 82, dimethyl [4-(p-amidino-N-methylbenzamido)acetyl-o-phenylenedioxy]diacetate] | 8.1 nM |
| CN(CC(=O)c1ccc(OCC(=O)O)c(OCC(=O)O)c1)C(=O)c1ccc(C(=N)N)cc1 [Example 83, [4-(p-amidino-N-methylbenzamido)acetyl-o-phenylenedioxy]diacetic acid] | 0.07 nM |
